Results as given in patent EP1285920A1, “C10 Ester sustituted taxanes as antitumor agents” (Florida State University Research Foundation, Inc., priority 2001, dated 2003).
Where two headings read alike, the source gives them in different places.

Key:
[1] = tested on: SKMES lung carcinoma; assay: In vivo evaluation of oral administration against SKMES human lung carcinoma xenograft (Example 21)
Method: Female Nu/Nu mice (6-8 weeks of age; implanted with 1 mm^3 SKMES lung carcinoma fragments in the flank) were sorted into treatment groups of six mice each. […] Treatments were administered as a single oral bolus on Day 1, and the study was terminated on Day 60.
(§1) A complete response is obtained if the tumor is not palpable at the end of the study.
The total response rate is defined as the percentage of evaluable animals (excluding deaths due to procedure or toxicity) in a group that experience complete or partial responses at the termination of the study.

[2] = tested on: Panc-1 pancreatic carcinoma; assay: In vivo evaluation against Panc-1 human pancreatic carcinoma (Example 17)
[3] = tested on: VM46 colon carcinoma
Method: Dosing was initiated on Day 1. […] Taxotere was given i.v. at a dose of 70 mg/kg on a qd x 1 schedule.

[4] = tested on: HCT116; assay: In Vitro cytotoxicity measured by the cell colony formation assay; format: cell-based, human; conditions: Homo sapiens, HCT-116; read-out: IN VITRO ID 50 HCT116
Outline: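 Four hundred cells per dish in McCoy's 5a medium with 10% FBS were allowed to attach for 5 h at 37 °C. They were then exposed to compound for 72 h at 37 °C, added as a 10× stock made fresh in medium. After HBSS rinsing and refeeding, colonies were counted after 7 days.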

[5] = tested on: DU145 prostate carcinoma
Description: Dosing was initiated on Day 1. […] Treatment groups are detailed in Table 5.

[6] = tested on: SK-MES carcinoma; assay: In vivo evaluation against SK-MES human lung carcinoma xenograft (i.v., Example 11)
Method: Antitumor compounds were formulated for an i.v. dosing regime prepared in the following vehicle: 10% ethanol, 10% Cremophor and 80% isotonic saline.
Vehicle control animals were dosed twice intravenously with half the total volume being given separated by one hour. The study was terminated on Day 60.
as §1
A tumor scoring system was designed to provide a more quantitative ranking of efficacy (therapeutic potential) among the antitumor agents evaluated against the different human solid tumor xenografts. Each mouse in a study was given a score of from 1 to 10 at the end of the study. The scores can be summarized as follows:
The individual score for each mouse was averaged into a mean score for each treatment group. […]

[7] = tested on: A375 melanoma
Method: Dosing was initiated on Day 1. […] Taxotere was given i.v. on a qd x 1 schedule at a dose of 70 mg/kg. […] The study was terminated on Day 60. Treatment groups are detailed in Table 9.

[8] = tested on: A2780 ovarian carcinoma
Method: Dosing was initiated on Day 1. […] Taxotere was given i.v. on a qd x 1 schedule at a dose of 70 mg/kg. […] The study was terminated on Day 60. Treatment groups are detailed in Table 7.

[9] = number of mice, single oral bolus Day 1, mg/kg: Taxol 40, 0687 228, 0503 73, 6 mice/group, Day 60
[10] = number of mice, i.v. qd x 1, mg/kg: Taxol 36, 0499 77, 0503 72.6, 0670 123.1, 0706 107.6, 0838 72.6, 0854 76.9, 6 mice/group, Day 60
[11] = VM46, i.v. qd x 1, six mice per group
[12] = number of mice, i.v. qd x 1, mg/kg: Taxol 24, 0499 77, 0503 72.6, 0670 123.1, 0706 107.6, 0838 72.6, 0854 46.6, 0983 67.4, Taxotere 70, 6 mice/group, Day 64
[13] = number of 5 mice, i.v. qd x 1 at estimated MTD (Taxol 24 mg/kg split), Day 91
[14] = number of mice, i.v. qd x 1 at estimated MTD (Taxol 24 mg/kg, Taxotere 70 mg/kg), 6 mice/group (Taxotere 7), Day 60
[15] = number of mice, i.v. qd x 1 at estimated MTD (Taxol 24 mg/kg, Taxotere 70 mg/kg, 0983 72.6 mg/kg), 5 mice/group (Taxotere 6), Day 60

Structure (SMILES): CCC(=O)O[C@H]1C(=O)[C@@]2(C)[C@H]([C@H](OC(=O)c3ccccc3)[C@]3(O)C[C@H](OC(=O)[C@H](O)[C@@H](NC(=O)OC(C)(C)C)c4ccccn4)C(C)=C1C3(C)C)[C@]1(OC(C)=O)CO[C@@H]1C[C@@H]2O [Compound 0503]
- complete responses ([1]; SKMES, 0503 73 mg/kg single oral bolus, six mice): three
- % Total Response ([1]; complete or partial responses among evaluable animals, single oral bolus Day 1, mg/kg: Taxol 40, 0687 228, 0503 73): 50.0%
- MDS (n) ([1]; mean days of survival until neoplasm reached 2.0 g, single oral bolus Day 1, mg/kg: Taxol 40, 0687 228, 0503 73, 6 mice/group, terminated Day 60): 29.8 ± 3.6 (3) days
- Toxic Deaths ([1]; number of mice, single oral bolus Day 1, mg/kg: Taxol 40, 0687 228, 0503 73, 6 mice/group): 0
- Complete Response [1, 9]: 3
- Partial Response [1, 9]: 0
- Stable Disease [1, 9]: 0
- Survivors [1, 9]: 3
- MDS ([2]; Panc-1 (Example 17), i.v. qd x 1 (compounds estimated MTD; Taxol 36 mg/kg split), days until tumor 1.5 g, ended Day 60): 47 to 56 days
- Stable Disease ([2]; Panc-1 (Example 17), i.v. qd x 1, six mice per group): three
- MDS (n) ([2]; mean days of survival until neoplasm reached 1.5 g, i.v. qd x 1, mg/kg: Taxol 36, 0499 77, 0503 72.6, 0670 123.1, 0706 107.6, 0838 72.6, 0854 76.9, 6 mice/group, terminated Day 60): 52.5 ± 2.1 (3) days
- Toxic Deaths ([2]; number of mice, i.v. qd x 1, mg/kg: Taxol 36, 0499 77, 0503 72.6, 0670 123.1, 0706 107.6, 0838 72.6, 0854 76.9, 6 mice/group): 0
- Complete Response [2, 10]: 0
- Partial Response [2, 10]: 0
- Stable Disease [2, 10]: 3
- Survivors [2, 10]: 3
- Mean Score ([2]; tumor scoring system, i.v. qd x 1, mg/kg: Taxol 36, 0499 77, 0503 72.6, 0670 123.1, 0706 107.6, 0838 72.6, 0854 76.9, 6 mice/group): 3.6 ± 0.4
- tolerability ([3]; VM46, i.v. qd x 1): well-tolerated
- partial responses ([3]; VM46, i.v. qd x 1 (compounds estimated MTD; Taxol 24 mg/kg split), six mice per group, ended Day 64): four
- Stable Disease [3, 11]: two
- Toxic Deaths [3, 11]: no toxic deaths
- response rate ([3]; VM46, i.v. qd x 1 at estimated MTD): 66.7%
- Toxic Deaths ([3]; number of mice, i.v. qd x 1, mg/kg: Taxol 24, 0499 77, 0503 72.6, 0670 123.1, 0706 107.6, 0838 72.6, 0854 46.6, 0983 67.4, Taxotere 70, 6 mice/group): 0
- Complete Response [3, 12]: 0
- Partial Response [3, 12]: 4
- Stable Disease [3, 12]: 1
- Survivors [3, 12]: 5
- Mean Score ([3]; tumor scoring system, i.v. qd x 1, mg/kg: Taxol 24, 0499 77, 0503 72.6, 0670 123.1, 0706 107.6, 0838 72.6, 0854 46.6, 0983 67.4, Taxotere 70, 6 mice/group): 7.3 ± 1.2
- IC50 [4]: < 1 nM
- total response rate ([5]; DU145, i.v. qd x 1 at estimated MTD, five mice per group): at least 50%
- Mean Score ([5]; i.v. qd x 1 at estimated MTD (Taxol 24 mg/kg split), 5 mice/group, Day 91): 6.2 ± 1.9
- Stable Disease ([5]; number of 5 mice, tumor did not reach 1.5 g by end of study, i.v. qd x 1 at estimated MTD (Taxol 24 mg/kg split), Day 91): 2
- Toxic Deaths ([5]; number of 5 mice, i.v. qd x 1 at estimated MTD (Taxol 24 mg/kg as two split doses), Day 91): 1
- Complete Response [5, 13]: 2
- Partial Response [5, 13]: 0
- Survivors [5, 13]: 4
- antitumor activity ([6]; SK-MES, 0503 72.1 mg/kg i.v.): highly active
- MDS (n) ([6]; SK-MES, i.v. MTD in two half doses one hour apart, qd x 1, Taxol 36 mg/kg, 0503 72.1 mg/kg, days until tumor 1.5 g, ended Day 60): 46.0 ± 0(2) days
- Toxic Deaths ([6]; SK-MES, i.v. split dose qd x 1, six mice per group): 0
- Survivors ([6]; SK-MES, i.v. split dose qd x 1, six mice per group, Day 60): 4
- Stable Disease ([6]; SK-MES, i.v. split dose qd x 1, tumor below 1.5 g at termination): 1
- Partial Response ([6]; SK-MES, i.v. split dose qd x 1, tumor smaller than on Day 1): 0
- Mean Score ([6]; SK-MES, tumor score 1 to 10 per mouse, group mean): 6.5 ± 1.6
- tolerability ([6]; mouse, in vivo, iv, 72.1 mg/kg): well tolerated
- survival extension compared to Group 1 controls ([7]; A375, i.v. qd x 1): 95%
- Complete Response ([7]; A375, i.v. qd x 1, six mice per group): 1
- MDS (n) ([7]; mean days of survival until neoplasm reached 2.0 g, i.v. qd x 1 at estimated MTD (Taxol 24 mg/kg, Taxotere 70 mg/kg), 6 mice/group (Taxotere 7), terminated Day 60): 28.1 ± 5.8 (3) days
- Toxic Deaths ([7]; number of mice, i.v. qd x 1 at estimated MTD (Taxol 24 mg/kg, Taxotere 70 mg/kg), 6 mice/group (Taxotere 7)): 2
- Complete Response [7, 14]: 1
- Partial Response [7, 14]: 0
- Stable Disease [7, 14]: 0
- Survivors [7, 14]: 1
- Mean Score ([7]; tumor scoring system, i.v. qd x 1 at estimated MTD (Taxol 24 mg/kg, Taxotere 70 mg/kg), 6 mice/group (Taxotere 7)): 2.8 ± 1.5
- antitumor activity ([8]; A2780, i.v. qd x 1): did not cause any complete responses, partial responses, or cases of stable disease
- MDS (n) ([8]; mean days of survival until neoplasm reached 2.0 g, i.v. qd x 1 at estimated MTD (Taxol 24 mg/kg, Taxotere 70 mg/kg, 0983 72.6 mg/kg), 5 mice/group (Taxotere 6), terminated Day 60): 32.4 ± 4.7 (5) days
- Toxic Deaths ([8]; number of mice, i.v. qd x 1 at estimated MTD (Taxol 24 mg/kg, Taxotere 70 mg/kg, 0983 72.6 mg/kg), 5 mice/group (Taxotere 6)): 0
- Complete Response [8, 15]: 0
- Partial Respons [8, 15]: 0
- Stable Disease [8, 15]: 0
- Survivors [8, 15]: 0
- Mean Score ([8]; tumor scoring system, i.v. qd x 1 at estimated MTD (Taxol 24 mg/kg, Taxotere 70 mg/kg, 0983 72.6 mg/kg), 5 mice/group (Taxotere 6)): 2.8 ± 0.2
